The target of the experiment is ClpC (with MecA) (Streptococcus mutans, UniProt Q8DS14). The following applies: 2 mM ATP, 5 mM MgCl2, 100 mM KCl, 25 mM Tris-HCl pH 8.0, 37 °C; 0.3 uM proteins; MecA present.

The record followed here is paper PMC4109385 (BMC Microbiology, 2014).

Chain of ClpC (with MecA) (Q8DW33 whole entry): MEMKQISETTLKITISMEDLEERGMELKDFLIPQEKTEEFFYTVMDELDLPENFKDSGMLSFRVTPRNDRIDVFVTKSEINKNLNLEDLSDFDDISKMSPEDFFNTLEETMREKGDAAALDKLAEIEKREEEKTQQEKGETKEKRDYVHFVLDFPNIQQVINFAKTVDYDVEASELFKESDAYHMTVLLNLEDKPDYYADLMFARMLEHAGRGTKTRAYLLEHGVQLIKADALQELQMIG
Chain of ClpC (with MecA) (Q8DS14 entry or part of it): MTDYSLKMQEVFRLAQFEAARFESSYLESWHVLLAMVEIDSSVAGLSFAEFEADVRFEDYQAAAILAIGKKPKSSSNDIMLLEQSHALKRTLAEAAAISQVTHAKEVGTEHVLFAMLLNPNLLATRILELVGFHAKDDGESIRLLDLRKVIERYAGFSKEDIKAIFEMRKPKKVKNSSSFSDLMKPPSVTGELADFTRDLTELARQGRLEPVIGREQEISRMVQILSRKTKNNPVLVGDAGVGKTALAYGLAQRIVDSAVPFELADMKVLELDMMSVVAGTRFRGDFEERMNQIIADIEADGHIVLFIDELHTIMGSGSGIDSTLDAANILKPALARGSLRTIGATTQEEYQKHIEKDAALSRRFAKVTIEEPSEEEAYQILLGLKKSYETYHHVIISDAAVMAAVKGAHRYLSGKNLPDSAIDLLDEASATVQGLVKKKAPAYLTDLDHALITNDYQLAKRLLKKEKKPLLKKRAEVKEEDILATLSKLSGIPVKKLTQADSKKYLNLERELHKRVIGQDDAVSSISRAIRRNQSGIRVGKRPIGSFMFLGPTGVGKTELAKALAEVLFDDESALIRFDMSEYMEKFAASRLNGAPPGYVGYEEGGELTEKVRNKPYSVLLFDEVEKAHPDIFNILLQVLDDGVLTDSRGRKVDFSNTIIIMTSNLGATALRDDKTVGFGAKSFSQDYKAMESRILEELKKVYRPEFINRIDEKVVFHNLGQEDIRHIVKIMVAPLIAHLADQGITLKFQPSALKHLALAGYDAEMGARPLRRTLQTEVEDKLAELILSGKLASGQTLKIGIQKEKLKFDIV

In the case of `Nc1ncnc2c1ncn2[C@@H]1O[C@H](COP(=O)(O)OP(=O)(O)OP(=O)(O)O)[C@@H](O)[C@H]1O` [ATP], the “malachite green ATPase assay (released orthophosphate)” value is given as “the presence of MecA increased the ATPase activity of ClpC (Figure 6A)”.
